Results from ChEMBL document CHEMBL1201862, “PubChem BioAssay data set” (2004).
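Growth conditions: 96-well plates. Treatment: test compound, 48 hours, 5 concentrations. Analysis: linear interpolation between bracketing concentrations; unreached endpoints set to highest concentration. GI50 is the concentration that inhibits growth by half.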 Calls of active or inactive are those of the source. Rule as the data show it: active = GI50 up to about 1.1 µM and inactive = higher.

Assays:
Assay in all cases: inhibition of tumour cell growth, NCI panel, 48 h
[1] = tested on: U-251
[2] = tested on: UO-31
[3] = tested on: M14
[4] = tested on: K562
[5] = tested on: OVCAR-4
[6] = tested on: HOP-92
[7] = tested on: CCRF-CEM
[8] = tested on: IGROV-1
[9] = tested on: TK-10
[10] = tested on: HOP-62
[11] = tested on: SF-295
[12] = tested on: SK-MEL-28
[13] = tested on: KM12
[14] = tested on: CAKI-1
[15] = tested on: OVCAR-3
[16] = tested on: KM-20L2
[17] = tested on: MDA-N
[18] = tested on: PC-3
[19] = tested on: NCI/ADR-RES
[20] = tested on: MCF7

Structure (SMILES) | GI50 [1] | GI50 [2] | GI50 [3] | GI50 [4] | GI50 [5] | GI50 [6] | GI50 [7] | GI50 [8] | GI50 [9] | GI50 [10] | GI50 [11] | GI50 [12] | GI50 [13] | GI50 [14] | GI50 [15] | GI50 [16] | GI50 [17] | GI50 [18] | GI50 [19] | GI50 [20]
COC(=O)CCC(=O)NC1C2CC3CC(C2)CC1C3 (stereo unspecified) | > 100 µM (inactive) | > 100 µM (inactive) | > 100 µM (inactive) | > 100 µM (inactive) | > 100 µM (inactive) | > 100 µM (inactive) | > 100 µM (inactive) | > 100 µM (inactive) | > 100 µM (inactive) | > 100 µM (inactive) | > 100 µM (inactive) | > 100 µM (inactive) | > 100 µM (inactive) | > 100 µM (inactive) | > 100 µM (inactive) | > 100 µM (inactive) |  |  |  | 
COc1ncnc2c(NC3OC(CO)C(O)C3O)ncnc12 (stereo unspecified) | 2.51 µM (inactive) | 0.984 µM (active) | 0.296 µM (active) | 0.0306 µM (active) | 0.713 µM (active) | 0.0156 µM (active) | < 0.0209 µM (active) | 0.28 µM (active) | 0.298 µM (active) | 0.408 µM (active) | 0.579 µM (active) | 6.89 µM (inactive) | 0.458 µM (active) | 0.267 µM (active) | 0.733 µM (active) | 0.407 µM (active) | 0.274 µM (active) | 0.493 µM (active) | 0.417 µM (active) | 0.041 µM (active)
Clc1ccc(-c2nnc3c4nnc(-c5ccc(Cl)cc5Cl)n4c4ccccc4n23)c(Cl)c1 | > 100 µM (inactive) | > 100 µM (inactive) | > 100 µM (inactive) | > 100 µM (inactive) | > 100 µM (inactive) | 92.3 µM (inactive) | > 100 µM (inactive) | > 100 µM (inactive) | > 100 µM (inactive) | > 100 µM (inactive) | > 100 µM (inactive) | > 100 µM (inactive) | > 100 µM (inactive) | > 100 µM (inactive) | > 100 µM (inactive) | > 100 µM (inactive) |  |  |  | 
N#CC(C(=O)C(=O)Nc1ccc(Cl)cc1)c1ccccc1 (stereo unspecified) | > 100 µM (inactive) | > 100 µM (inactive) | > 100 µM (inactive) | > 100 µM (inactive) | > 100 µM (inactive) | > 100 µM (inactive) | > 100 µM (inactive) | > 100 µM (inactive) | > 100 µM (inactive) | 85.1 µM (inactive) | > 100 µM (inactive) | > 100 µM (inactive) | > 100 µM (inactive) | > 100 µM (inactive) | > 100 µM (inactive) | > 100 µM (inactive) |  |  |  | 
O=C(Cc1nc2ccccc2o1)C(=O)Nc1cccc(Cl)c1 | > 100 µM (inactive) | > 100 µM (inactive) | > 100 µM (inactive) | > 100 µM (inactive) | > 100 µM (inactive) | > 100 µM (inactive) | > 100 µM (inactive) | > 100 µM (inactive) | > 100 µM (inactive) | > 100 µM (inactive) | > 100 µM (inactive) | > 100 µM (inactive) | > 100 µM (inactive) | > 100 µM (inactive) | > 100 µM (inactive) | > 100 µM (inactive) |  |  |  | 
O=C(C/C(=N\NC(=O)C[n+]1ccccc1)C(=O)Nc1nc2ccc([N+](=O)[O-])cc2s1)CC(c1ccccc1)c1c(O)c2ccccc2oc1=O (stereo unspecified) |  | 67.5 µM (inactive) | > 100 µM (inactive) | > 100 µM (inactive) | > 100 µM (inactive) | > 100 µM (inactive) | > 100 µM (inactive) | > 100 µM (inactive) | > 100 µM (inactive) | > 100 µM (inactive) | > 100 µM (inactive) | > 100 µM (inactive) | > 100 µM (inactive) | > 100 µM (inactive) | > 100 µM (inactive) | > 100 µM (inactive) |  |  |  | 
CC1=C(C(=O)Nc2cc(F)c(F)cc2F)C(c2ccc([N+](=O)[O-])cc2)C(C(=O)Nc2cc(F)c(F)cc2F)=C(C)N1 | 30.7 µM (inactive) | 13.1 µM (inactive) | 54.2 µM (inactive) | 24.2 µM (inactive) | 18.5 µM (inactive) | 12.8 µM (inactive) | 16.5 µM (inactive) | 28.2 µM (inactive) | 22.5 µM (inactive) | 19.6 µM (inactive) | 56.1 µM (inactive) | 42.7 µM (inactive) | 29.3 µM (inactive) | 18.5 µM (inactive) | 19.1 µM (inactive) | 37.9 µM (inactive) |  |  |  | 
Cc1ccc(C(=O)CC2(O)C(=O)Nc3c(C)cc(Cl)cc32)cc1 (stereo unspecified) | > 100 µM (inactive) | > 100 µM (inactive) | > 100 µM (inactive) | 86.5 µM (inactive) | 35.7 µM (inactive) | > 100 µM (inactive) | > 100 µM (inactive) |  | > 100 µM (inactive) | > 100 µM (inactive) | > 100 µM (inactive) | > 100 µM (inactive) | > 100 µM (inactive) | > 100 µM (inactive) | > 100 µM (inactive) | > 100 µM (inactive) |  |  |  | 
Cc1ccccc1NC(=O)c1cc(-c2ccc([N+](=O)[O-])cc2)nc(S)n1 | > 100 µM (inactive) | > 100 µM (inactive) | > 100 µM (inactive) | > 100 µM (inactive) | > 100 µM (inactive) | > 100 µM (inactive) | > 10 µM (inactive) | > 100 µM (inactive) | > 100 µM (inactive) | > 100 µM (inactive) | > 100 µM (inactive) | > 100 µM (inactive) | > 100 µM (inactive) | > 100 µM (inactive) | > 100 µM (inactive) | > 100 µM (inactive) |  |  |  | 
